# Test results: paper PMC12163684, “Gunacins: Novel Benzo[g]chromene Derivatives from the Fungus Exobasidium sp. and Their Potent Anti-Leishmania and Trypanosoma Activities” (ACS Omega, 2025)
# What was measured:
# [1] = system: Madin–Darby canine kidney (MDCK) epithelial cell line; experiment: Cytotoxicity on proliferating cells, crystal violet assay, OD590; type: cell-based; details: Canis lupus familiaris, 24 h treatment, read-out: EC50 ± SEM MDCK
# Procedure: (§1) MDCK and RAT cells were cultured in DMEM with 10% FBS at 37 °C in a 5% CO2 atmosphere as described previously. , To assess the toxic effects of the compounds on proliferating cells, cells were seeded in 24-well plates for 24 h to reach ∼15% confluence, and cells were treated in triplicate with increasing concentrations of the isolated compounds for an additional 24 h. Cells were washed with 1× PBS, fixed in staining solution (0.5% crystal violet, 20% methanol) for 10 min, and gently washed five times in 1× PBS. The fixed cells were then dissolved in lysis solution (0.1 M sodium citrate, 25% ethanol, pH 4.2) for 30 min, transferred to a 96-well plate in H2O, and the OD^590 was determined. EC50 values were determined using GraphPad Prism software and the dose–response fit equation. The EC50 values were determined from two independent experiments. Additionally, the impact of the isolated substances on the morphology of the HeLa adenocarcinoma cell line and primary human skin fibroblasts was examined by using fluorescence microscopy. Cells were cultured in DME medium supplemented with 10% FCS (Gibco, Invitrogen, Carlsbad, USA) on glass coverslips in 24-well plates until reaching approximately 50% confluence. The cells were treated with varying concentrations of isolated compounds dissolved in DMSO. Wells containing DMEM with DMSO served as the negative control. After 24 h cultivation, the cells were incubated with MitoTracker Red CMXRos (10 min) to label mitochondria, then fixed with 3.7% paraformaldehyde in PBS (20 min, room temperature), permeabilized with 0.1% Triton X-100 in PBS, and blocked with 1% BSA in PBS. The cells were then stained with Phalloidin-Alexa Fluor488 conjugate. All fluorescence reagents were purchased from Molecular Probes, Invitrogen, Carlsbad, CA, USA. Nuclei were stained with Fluoroshield DAPI (Sigma-Aldrich), and cells were examined using an IX71 microscope equipped with a DP70 camera and a 40× objective. Assays were performed at concentrations of 5, 25, 50, 100, and 125 μM.
# [2] = system: RAT2 fibroblast cell line; experiment: as above; type: cell-based; details: Rat2, 24 h, 24 h treatment, read-out: EC50 ± SEM RAT2
# Procedure: as §1
# [3] = system: Trypanosoma congolense IL3000; experiment: Anti-trypanosomal activity, resazurin (AB assay), bloodstream form; type: cell-based; details: 72 h, axenic, 48 h + 24 h resazurin, read-out: EC50 T. congolense
# Procedure: (§2) The bloodstream forms of T. b. gambiense LiTat 1.3, T. b. brucei 427, and T. b. evansi AnTat 3/3 were grown in HMI-11 medium pH 7.3 supplemented with 36 mM sodium bicarbonate, 100 U/mL penicillin/streptomycin, and 10% fetal bovine serum at 37 °C and 5% CO2. The bloodstream form of Trypanosoma congolense IL3000 (generous gift from Liam Morrison) was cultured in TcBSF-1 medium pH 7.3 supplemented with 26 mM sodium bicarbonate, 25 mM HEPES, 5.5 mM glucose, 1 mM sodium pyruvate, 0.04 mM adenosine, 0.1 mM hypoxanthine, 0.02 mM thymidine, 0.02 mM bathocuproine, 2 mM L-glutamine, 0.2 mM 2-mercaptoethanol, 100 U/ml penicillin/streptomycin, and 20% goat serum New Zealand origin (Gibco) at 34 °C, 5% CO2. The assay for anti-trypanosomal activity was performed using the resazurin sodium salt dye (AB Assay) according to the published protocol in a 96-well plate format. Parasites at a number of 5 × 10^3 per well (T. b. brucei and T. b. gambiense) or 1 × 10^4 per well (T. b. evansi) were incubated with different drug concentrations (2-fold serial dilutions) in a volume of 200 μL of the medium. Medium with 1% DMSO (the highest concentration of the solvent used in the assay) was used to confirm no effect of the solvent on the cell growth. The plates were incubated for 48 h at the appropriate temperature. Then, 20 μL of resazurin sodium salt solution (0.125 mg/mL in 1× PBS, pH 7. 4) was added to each well, and the cells were incubated for another 24 h under the same conditions. The fluorescence signal was quantified using a Tecan Infinite M200 plate reader at excitation and emission wavelengths of 560 and 590 nm, respectively. The EC50 values were calculated using GraphPad Prism 9.5.1 by nonlinear regression with a variable slope. Each EC50 value is the mean ± standard error of the mean of three separate experiments performed in duplicate.
# T. b. brucei 427 = experiment: as above; type: cell-based; details: Trypanosoma brucei, 72 h, axenic, 48 h + 24 h resazurin
# Procedure: as §2
# [4] = system: L. mexicana (MNYC/BZ/1962/M379) amastigote; experiment: Anti-Leishmania activity, AB assay, axenic amastigotes; type: cell-based
# Procedure: (§3) Promastigote stages of L. mexicana (MNYC/BZ/1962/M379), a generous gift from Vyacheslav Yurchenko, were cultured in M199 medium pH 7.4 supplemented with 2 μg/mL biopterin, 2 μg/mL hemin, 25 mM HEPES, 100 U/mL penicillin/streptomycin, and 10% heat-inactivated FBS (BioSera) pH 7.4 at 25 °C. The amastigotes were differentiated in vitro from late log/stationary promastigote cultures and cultivated in Schneider’s Drosophila Medium (SIM) at pH 5.5, supplemented with 1.5 μg/mL hemin, 100 U/mL penicillin/streptomycin, and 20% heat-inactivated FBS (BioSera) at pH 5.5, at 32 °C, and 5% CO2. Following a three-day period, the promastigotes underwent a transformation into amastigotes, which were then maintained in SIM.
# (§4) To estimate the EC50, the AB assay, as previously described, was employed. The results are expressed as EC50, representing the dose of the compound required to inhibit cellular growth by 50%. Each EC50 value is the mean ± the standard error of the mean derived from at least three separate experiments, each performed in duplicate.
# [5] = system: T. b. gambiense LiTat 1.3; experiment: Anti-trypanosomal activity, resazurin (AB assay), bloodstream form; type: cell-based, T. brucei gambiense; details: Trypanosoma brucei, 72 h, axenic, 48 h + 24 h resazurin
# Procedure: as §2
# C. albicans CCM 8215 = experiment: Minimum inhibitory concentration (MIC) testing, serial binary dilution in 96-well plates; type: cell-based; details: Candida albicans, CCM8215; 24 h in the dark; n.d. = activity not detected; highest tested concentration 66.7 μM
# Procedure: (§5) Minimum inhibitory concentration (MIC) testing of the extracts was performed using 96-well polypropylene plates against four different microorganisms: the Gram-positive bacterium K. rhizophila ATCC 9341, the Gram-negative bacterium E. coli ATCC 3988, and the yeasts C. albicans CCM 8215 and C. neoformans CCF 1081.
# (§6) A working inoculum of each microorganism was prepared as follows: for E. coli and K. rhizophila, the inoculum was grown in LB medium (LB Broth, 25 g/L, incubated at 36 °C); for C. albicans and C. neoformans, YM6.3 medium (maltose extract 10 g, glucose 4 g, yeast extract 4 g per 1 L distilled water, incubated at 24 °C) with a cell concentration of approximately 5 × 10^5 cells/mL for all microorganisms was used.
# (§7) Chloramphenicol served as a positive control for bacteria, while cycloheximide was used as a positive control for fungi. The gradient of the test substances was established by serial binary dilution across the wells. The MIC was determined by identifying the lowest concentration at which no live microorganisms were present. Cultivation was performed in the dark for 24 h.
# C. neoformans CCF 1081 = experiment: as above; type: cell-based; details: Cryptococcus neoformans, CCF1081; 24 h in the dark; n.d. = activity not detected; highest tested concentration 66.7 μM
# Procedure: as §5, §6, §7
# E. coli ATCC 3988 = experiment: as above; type: cell-based; details: Escherichia coli, ATCC3988; 24 h in the dark; lowest concentration with no live microorganisms
# Procedure: as §5, §6, §7
# K. rhizophila ATCC 9341 = experiment: as above; type: cell-based; details: Kocuria rhizophila, ATCC9341; 24 h in the dark; lowest concentration with no live microorganisms
# Procedure: as §5, §6, §7
# [6] = system: L. mexicana (MNYC/BZ/1962/M379) promastigote; experiment: Anti-Leishmania activity, AB assay, axenic promastigotes; type: cell-based
# Procedure: as §3, §4
# T. b. evansi AnTat 3/3 = experiment: Anti-trypanosomal activity, resazurin (AB assay), bloodstream form; type: cell-based, T. brucei evansi; details: Trypanosoma brucei, 72 h, axenic, 48 h + 24 h resazurin
# Procedure: as §2
Compound,EC50 [1] [µM],EC50 [2] [µM],EC50 [3] [µM],EC50 (T. b. brucei 427) [µM],EC50 [4] [µM],EC50 [5] [µM],MIC (C. albicans CCM 8215) [µM],MIC (C. neoformans CCF 1081) [µM],MIC (E. coli ATCC 3988) [µM],MIC (K. rhizophila ATCC 9341) [µM],EC50 [6] [µM],EC50 (T. b. evansi AnTat 3/3) [µM]
"COc1cc(O)c2c(c1)C(=O)C1=C(C2=O)[C@@H](O)[C@@H](O)[C@@H](C)O1 [Compound 4, (2R,3R,4R)-3,4,6-trihydroxy-8-methoxy-2-methyl-3,4-dihydro-2H-benzo[g]chromene-5,10-dione]",6 ± 1,5.1 ± 0.1,,,,,,,,,,
"COc1cc(O)c2c(c1)C(=O)C1=C(C[C@@H](O)[C@@H](C)O1)C2=O [Compound 6, (2R,3R)-3,6-dihydroxy-8-methoxy-2-methyl-3,4-dihydro-2H-benzo[g]chromene-5,10-dione]",7.2 ± 0.5,6.7 ± 0.8,9.2,5.1,5.5,8.6,66.7,66.7,2.1,8.3,25.2,2.4
"C[C@@H]1[C@H](O)[C@@H](C)/C=C/C=C/C=C/C=C/C=C/C=C/C=C/[C@H](O[C@@H]2O[C@H](C)[C@@H](O)[C@H](N)[C@@H]2O)C[C@@H]2O[C@](O)(C[C@@H](O)C[C@@H](O)[C@H](O)CC[C@@H](O)C[C@@H](O)CC(=O)O[C@H]1C)C[C@H](O)[C@H]2C(=O)O [amphotericin B, reference compound]",,,,,,,,,,,0.1,
"O=C(N[C@H](CO)[C@H](O)c1ccc([N+](=O)[O-])cc1)C(Cl)Cl [chloramphenicol, reference compound]",,,,,,,,,10.3,10.3,,
